System: 422866-222-R5-J1-PDC spheroids with HUVEC/MSC, viability
Experiment: Anticancer human tumor 422866-222-R5-J1-PDC patient-derived pancreatic adenocarcinoma cell line growth inhibition [GQUAD]
Settings: for IC50: curve of first compound; for viability, T/C: stronger effect = lower value; active = viability on the fitted dose curve at most 10% of control; inactive = the rest
In short: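 Multi-cell-type spheroids of tumor cells with HUVEC and mesenchymal stem cells, treated with drug combinations. Concentrations descend in half-log steps from near clinical Cmax, or from 10 microM where Cmax is unknown; viability read-out.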

[1] = second compound 0.0316 µM, first compound 0.0316 µM
[2] = second compound 0.0316 µM, first compound 0.1 µM
[3] = second compound 0.0316 µM, first compound 0.316 µM
[4] = second compound 0.0316 µM, first compound 1 µM
[5] = second compound 0.0316 µM, first compound 3.16 µM
[6] = second compound 0.0316 µM, first compound 10 µM
[7] = second compound 0.1 µM, first compound 0.0316 µM
[8] = second compound 0.1 µM, first compound 0.1 µM
[9] = second compound 0.1 µM, first compound 0.316 µM
[10] = second compound 0.1 µM, first compound 1 µM
[11] = second compound 0.1 µM, first compound 3.16 µM
[12] = second compound 0.1 µM, first compound 10 µM
[13] = second compound 0.316 µM, first compound 0.0316 µM
[14] = second compound 0.316 µM, first compound 0.1 µM
[15] = second compound 0.316 µM, first compound 0.316 µM
[16] = second compound 0.316 µM, first compound 1 µM
[17] = second compound 0.316 µM, first compound 3.16 µM
[18] = second compound 0.316 µM, first compound 10 µM
[19] = second compound 1 µM, first compound 0.0316 µM
[20] = second compound 1 µM, first compound 0.1 µM
[21] = second compound 1 µM, first compound 0.316 µM
[22] = second compound 1 µM, first compound 1 µM
[23] = second compound 1 µM, first compound 3.16 µM
[24] = second compound 1 µM, first compound 10 µM
[25] = second compound 3.16 µM, first compound 0.0316 µM
[26] = second compound 3.16 µM, first compound 0.1 µM
[27] = second compound 3.16 µM, first compound 0.316 µM
[28] = second compound 3.16 µM, first compound 1 µM
[29] = second compound 3.16 µM, first compound 3.16 µM
[30] = second compound 3.16 µM, first compound 10 µM
[31] = second compound 10 µM, first compound 0.0316 µM
[32] = second compound 10 µM, first compound 0.1 µM
[33] = second compound 10 µM, first compound 0.316 µM
[34] = second compound 10 µM, first compound 1 µM
[35] = second compound 10 µM, first compound 3.16 µM
[36] = second compound 10 µM, first compound 10 µM
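Note: spheroids exposed to compounds for seven days before reading.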
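Throughout, for viability, T/C: percent viability relative to DMSO vehicle control taken as 100%.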

COc1ncnc(C2CC2)c1-c1ncc2cnn(Cc3ccc(-c4nc(C(F)(F)F)cn4C(C)C)cc3)c2n1 + Cc1cnc(CNC(=O)c2c(=O)c3ccc(N4CCCN(C)CC4)nc3n3c2sc2ccccc23)cn1
> 10 µM: IC50 (second compound 0.0316 µM) | IC50 (second compound 0.1 µM) | IC50 (second compound 0.316 µM) | IC50 (second compound 1 µM) | IC50 (second compound 3.16 µM) | IC50 (second compound 10 µM)
inactive: viability, T/C [1] 86.6% | viability, T/C [2] 79.2% | viability, T/C [3] 84.4% | viability, T/C [4] 74.3% | viability, T/C [5] 91.5% | viability, T/C [6] 93.6% | viability, T/C [7] 99.4% | viability, T/C [8] 74.7% | viability, T/C [9] 82.9% | viability, T/C [10] 88.8% | viability, T/C [11] 101% | viability, T/C [12] 86.5% | viability, T/C [13] 84.4% | viability, T/C [14] 72.4% | viability, T/C [15] 78.8% | viability, T/C [16] 80.4% | viability, T/C [17] 93.2% | viability, T/C [18] 94% | viability, T/C [19] 63% | viability, T/C [20] 80.1% | viability, T/C [21] 84.3% | viability, T/C [22] 85.4% | viability, T/C [23] 82.3% | viability, T/C [24] 98.8% | viability, T/C [25] 71.8% | viability, T/C [26] 80.4% | viability, T/C [27] 82.7% | viability, T/C [28] 71.9% | viability, T/C [29] 98.1% | viability, T/C [30] 98% | viability, T/C [31] 70.3% | viability, T/C [32] 80.7% | viability, T/C [33] 88.6% | viability, T/C [34] 72.8% | viability, T/C [35] 84.7% | viability, T/C [36] 88.2%

CC1COCCN1c1cc(C2(O)CC3CCC(C2)O3)c2cnn(-c3ccn[nH]3)c2n1 (stereo unspecified) + Cc1cnc(CNC(=O)c2c(=O)c3ccc(N4CCCN(C)CC4)nc3n3c2sc2ccccc23)cn1
0.0316 µM: IC50 (second compound 0.1 µM) | IC50 (second compound 3.16 µM) | IC50 (second compound 10 µM)
> 10 µM: IC50 (second compound 0.0316 µM) | IC50 (second compound 0.316 µM) | IC50 (second compound 1 µM)
inactive: viability, T/C [1] 64.2% | viability, T/C [2] 43.7% | viability, T/C [3] 43.1% | viability, T/C [4] 61.8% | viability, T/C [5] 80.2% | viability, T/C [6] 82.9% | viability, T/C [7] 67.7% | viability, T/C [8] 51% | viability, T/C [9] 35.3% | viability, T/C [10] 49.2% | viability, T/C [11] 86.7% | viability, T/C [12] 90.4% | viability, T/C [13] 74.2% | viability, T/C [14] 61.2% | viability, T/C [15] 47.8% | viability, T/C [16] 47.4% | viability, T/C [17] 85.5% | viability, T/C [18] 81.9% | viability, T/C [19] 70.1% | viability, T/C [20] 63.9% | viability, T/C [21] 44.1% | viability, T/C [22] 53.6% | viability, T/C [23] 74.9% | viability, T/C [24] 85.4% | viability, T/C [25] 59.7% | viability, T/C [26] 63.5% | viability, T/C [27] 42.2% | viability, T/C [28] 46.2% | viability, T/C [29] 75.2% | viability, T/C [30] 76% | viability, T/C [31] 61.4% | viability, T/C [32] 62.4% | viability, T/C [33] 45.2% | viability, T/C [34] 36.8% | viability, T/C [35] 68.6% | viability, T/C [36] 78.5%

CC1COCCN1c1cc(-c2ccnn2C)c2ccnc(-c3ccn[nH]3)c2n1 (stereo unspecified) + CN(C)c1ccc(Nc2c3ccc(NC(=O)CCN4CCCC4)cc3nc3cc(NC(=O)CCN4CCCC4)ccc23)cc1
inactive: viability, T/C [1] 88.7% | viability, T/C [2] 60.3% | viability, T/C [3] 53.2% | viability, T/C [4] 46.5% | viability, T/C [5] 73.2% | viability, T/C [6] 92.6% | viability, T/C [7] 92.4% | viability, T/C [8] 62.7% | viability, T/C [9] 46.2% | viability, T/C [10] 36.2% | viability, T/C [11] 86.8% | viability, T/C [12] 84.2% | viability, T/C [13] 86.8% | viability, T/C [14] 70.2% | viability, T/C [15] 46.7% | viability, T/C [16] 39.4% | viability, T/C [17] 86.9% | viability, T/C [18] 89.3% | viability, T/C [19] 73% | viability, T/C [20] 52% | viability, T/C [21] 37.2% | viability, T/C [22] 39.2% | viability, T/C [23] 91.2% | viability, T/C [24] 71.5% | viability, T/C [25] 79% | viability, T/C [26] 54.8% | viability, T/C [27] 38% | viability, T/C [28] 39.7% | viability, T/C [29] 81.2% | viability, T/C [30] 94.6% | viability, T/C [31] 76.8% | viability, T/C [32] 52.7% | viability, T/C [33] 40.2% | viability, T/C [34] 41.4% | viability, T/C [35] 83.9% | viability, T/C [36] 83.8%
> 10 µM: IC50 (second compound 0.0316 µM) | IC50 (second compound 0.1 µM) | IC50 (second compound 0.316 µM)
0.0316 µM: IC50 (second compound 1 µM) | IC50 (second compound 3.16 µM) | IC50 (second compound 10 µM)
